In ChEMBL document CHEMBL5728748 (2021):

Test: TarO Biochemical Enzymatic Assay: The TarO biochemical enzymatic assay is a liquid chromatography-mass spectroscopy (LC-MS) based end point assay that measures C55-P-P-GlcNAc (LIPID III) production. The TarO biochemical enzymatic assay was performed in a 384-well microtiter plate (Labcyte) with a reaction volume of 20 μl. The reaction mix contained 0.1 μgs/μl of TarO membrane preparation derived from MRSA COL (lysostaphin/lysozyme treated, centrifuged at 40K rpm, and re-suspended in 50 mM Tris pH 7.5, 10 mM MgCl2), 1500 μM UDP-GlcNAc, x 75 μM C55-P substrates in 83 mM Tris pH 8.0, 6.7 mM MgCl2, 6 mM CHAPS, and 8.3% DMSO buffer. The enzyme reactions were quenched by extraction in 40 μl of 1-pentanol containing 0.04 μM […] C55-PP-GlcNAc, which was used as an internal standard. A 10 μl volume of the quenched reaction mixture (pH≈3) from each well was injected onto a reversed-phase column (C4, 5 m, 2.1×50 mm, Thermo Scientific Biobacis-4) and eluted using a NH4Ac/H2O/MeOH gradient (solvent A: 10 mM NH4Ac in water, pH 5.6; solvent B: NH4Ac (1 M)-Isopropanol (1:90, v/v, pH 5.6). The HPLC conditions were as follows: 15% solvent B for 15 seconds followed by a gradient to 90% solvent B in 90 seconds; then solvent B was kept at 95% for 10 seconds followed by a gradient to 8% solvent B in 0.1 minute. The column was then equilibrated at 15% B for 1 minute before the next injection. The flow rate was kept constant at 600 μl/minute. Mass spectrometric detection was carried out in the negative-ion mode using selected reaction monitoring (SRM). Typical mass spectrometric conditions were as follows: heated capillary temperature, 210° C.; spray voltage, 2500 V; desolvation gas (N2), 40 l/h; auxiliary gas (N2), 35 l/h. Selected ion current (SIC) chromatograms of C55-PP-GlcNAc and internal standard 15C C55-PP-GlcNAc were plotted and integrated using LCQuan incorporated in Xcalibur software (ThermoFinnigan). The linearity of C55-PP-GlcNAc concentration versus mass spectrometric signal (AC55-PP-GlcNAc/A15C-C55-PP-GlcNAc) was determined with purified C55-PP-GlcNAc. The IC50 values were calculated using the nonlinear regression analysis (sigmoidal dose response fit allowing for a variable slope) of percent inhibition data with minimum and maximum values set to 0 and 100 percent.

Row | Structure (SMILES) | IC50 [nM]
1 | O=C(NCc1cncc2ccccc12)N1C(=O)O[C@H](c2cc(F)cc(C(F)(F)F)c2)[C@@H]1CCO | 4770
2 | C[C@H]1[C@@H](c2cc(N3CCC(F)(F)C3)cc(C(F)(F)F)c2)OC(=O)N1C(=O)NCc1cccc2cncnc12 | 260
3 | CC[C@H]1[C@@H](c2cc(C(F)(F)F)cc(C(F)(F)F)c2)OC(=O)N1C(=O)CCc1cncc2ccccc12 | 60
4 | Cc1ccc2c(n1)N(CCC(=O)N1C(=O)O[C@H](c3cc(F)cc(C(F)(F)F)c3)[C@@H]1C)CCO2 | 240
5 | O=C(CCc1cncc2ccccc12)N1C[C@H](c2cc(C(F)(F)F)cc(C(F)(F)F)c2)OC1=O | 540
6 | COc1cccc([C@H]2OC(=O)N(C(=O)CCc3cccc4ccccc34)[C@H]2C)n1 | 3000
7 | C[C@H]1[C@@H](c2cccc(Br)n2)OC(=O)N1C(=O)CCc1cccc2ccccc12 | 480
8 | COc1cc([C@H]2OC(=O)N(C(=O)NCc3cncc4cccnc34)C[C@H]2C)cc(C(F)(F)F)c1 | 1260
9 | C[C@H]1[C@@H](c2cc(Br)cc(C(F)(F)F)c2)OC(=O)N1C(=O)CCc1cncc2ccccc12 | 1490
10 | COc1cccc([C@H]2OC(=O)N(C(=O)CCc3cncc4ccccc34)[C@H]2C)c1 | 1200
11 | C[C@@H]1NN(C(=O)NCc2cncc3ccccc23)C(=O)O[C@@H]1c1cc(F)cc(C(F)(F)F)c1 | 950
12 | O=C(CCc1cncc2ccccc12)N1CC(c2cccc(F)c2F)OC1=O (centres undefined) | 1200
13 | C[C@H]1[C@@H](c2cc(C(F)(F)F)cc(C(F)(F)F)c2)OC(=O)N1C(=O)COc1cccc2ccccc12 | 40
14 | COc1cc(C(F)(F)F)nc([C@@H]2OC(=O)N(C(=O)NCc3cncc4ccccc34)[C@H]2C)n1 | 2170
15 | Cc1cccc(OCC(=O)N2C(=O)O[C@H](c3cccc(C(F)(F)F)c3)[C@@H]2C)c1C | 680
16 | C[C@H]1[C@@H](c2cc(C(F)(F)F)ccn2)OC(=O)N1C(=O)CCc1cncc2ccccc12 | 6980
17 | C[C@H]1[C@@H](c2ccc(F)c(F)c2)OC(=O)N1C(=O)CCc1cncc2ccccc12 | 4640
18 | C[C@H]1[C@@H](c2cc(N(C)C)cc(C(F)(F)F)c2)OC(=O)N1C(=O)NCc1cncc2ccccc12 | 30
19 | C[C@H]1CN(C(=O)NCc2cncc3ccccc23)C(=O)O[C@@H]1c1cc(C(F)(F)F)cc(C(F)(F)F)c1 (single isomer, unassigned) | 30
